According to paper PMC13114161 (Antibiotics, 2026):
In brackets after ≈: the same amount, converted by molar mass. Read-outs that look alike come from different tables or passages of the source.

How the values were obtained:
in vivo [1] = conditions: female, CD-1, mouse, 30 mg/kg; for half-life: Plasma Half-life; for Vd: Plasma Vd
Procedure: The P. aeruginosa strain UNT034-1 (ATCC 27853) was used for infection studies. Female CD-1 mice (6–8 weeks old; 22 ± 2 g) were obtained from Envigo Laboratories (Indianapolis, IN, USA). All procedures were conducted in accordance with protocols approved by the University of North Texas Health Science Center (UNTHSC) Institutional Animal Care and Use Committee (protocol IACUC-2021-0003). Neutropenia was induced by intraperitoneal (i.p.) injection of cyclophosphamide (Cytoxan) at 150 mg/kg on day 4 and 100 mg/kg on day 1 before infection. Mice were anesthetized by i.p. injection of ketamine (40 mg/kg) and xylazine (6 mg/kg) and intranasally inoculated with 0.05 mL of the prepared P. aeruginosa suspension by placing droplets onto the nares and allowing inhalation. Following inoculation, mice were returned to cages for recovery. […] At predetermined time points (0.083, 0.25, 0.5, 1, 2, 4, 8, and 24 h), groups of three mice were euthanized by CO2 asphyxiation. Blood was collected by cardiac puncture into tubes containing EDTA or serum separator gel, centrifuged at 4 °C, and plasma or serum was harvested within 30 min of collection. Bronchoalveolar lavage fluid (BALF) was collected to determine drug concentrations at the site of infection. Briefly, 1.2 mL of sterile 0.9% NaCl was instilled into the lungs via the trachea and gently withdrawn. The epithelial lining fluid (ELF) dilution factor was determined by the blood urea nitrogen (BUN) method. Plasma and BALF samples were stored at −80 °C until analysis. Drug concentrations were quantified by LC-MS/MS using a Surveyor HPLC system coupled to a TSQ Quantum Ultra triple-quadrupole mass spectrometer (Thermo Scientific). Separation was achieved on a Phenomenex Kinetex PFP column (50 × 2.1 mm, 2.6 µm) with a mobile phase gradient of water (0.1% formic acid, A) and acetonitrile (0.1% formic acid, B) at 0.5 mL/min. The gradient proceeded from 10% to 90% B over 4 min, held for 1 min, and re-equilibrated to initial conditions. The column oven was maintained at 30 °C. […] Samples (50 µL plasma or BALF) were spiked with 10 µL of internal standard in methanol, precipitated with 150 µL acetonitrile, vortexed, sonicated for 10 min, and centrifuged at 14,500 rpm for 5 min. A 100 µL aliquot of the supernatant was transferred to autosampler vials, and 10 µL was injected for analysis. Concentration-time data were analyzed using noncompartmental methods (PK Solutions v2.0; Summit Research Services, Montrose, CO, USA). Parameters including area under the concentration-time curve (AUC0-t), maximum concentration (Cmax), time to Cmax (Tmax), apparent volume of distribution (Vd), systemic clearance (CL), and terminal half-life (t½) were calculated. Data are presented as means ± standard deviation (SD) for three animals per time point.

P. aeruginosa ATCC 27853 [2] = assay: Neutropenic murine lung infection model; type: in vivo, CD-1 mice; conditions: for Mean Log10 CFU (lung): +24 hr
Procedure: For the lung infection model, mice were anesthetized by IP injection of 0.15 mL of a ketamine (40 mg/kg) + xylazine (6 mg/kg) mixture and inoculated intranasally (IN) with 0.05 mL of a 4 × 10^8 CFU/mL bacterial suspension applied dropwise to the external nares. Two hours post-infection, mice received test articles IV (EPIs) or SC (levofloxacin). At 2 h or 24 h post-infection, mice were euthanized by CO2 asphyxiation, and lungs were aseptically removed, placed in 2 mL sterile PBS, and homogenized using the same procedure described above. Homogenates were serially diluted and plated (8 µL spots) onto BHI-charcoal and citrate agar, incubated overnight at 37 °C, and colonies were counted the following day.

P. aeruginosa ATCC 27853 [3] = type: cell-based, Pseudomonas aeruginosa
Procedure: OmpH is a homologous periplasmic chaperone that binds newly synthesized, unfolded outer membrane proteins (OMPs) and delivers them to the outer membrane for assembly by the BAM machinery, thereby preventing aggregation and facilitating proper membrane insertion.
Frequency-of-resistance studies were carried out as described previously.

P. aeruginosa = assay: Effect of inoculum on levofloxacin potentiation (MIC); type: cell-based, Pseudomonas aeruginosa
Procedure: (§1) MIC assays for potentiation of antimicrobial activity against P. aeruginosa were performed as described previously.

[4] = system: P. aeruginosa ATCC 27853 ompH mutants EPIR32, EPIR36, EPIR38; assay: microbe, parasite or virus in culture; type: cell-based, Pseudomonas aeruginosa
Procedure: as §1

Aqueous solubility = type: physicochemical; conditions: for solubility at 6 h: system solution (SS), pH 7.4, aqueous buffer, kinetic from dmso stock
Procedure: The aqueous solubility of TXA11114 was evaluated in system solution (SS) at pH 7.4. Known concentrations of TXA11114, prepared as DMSO stock solutions, were spiked into SS and incubated for 6 h at room temperature with constant shaking (250 rpm). Caffeine and diethylstilbestrol (DES) were used as positive controls. […] Aliquots (500 µL) of diluted test and control compounds were dispensed into 96-deep-well plates in triplicate, sealed, and incubated as described above. Following incubation, 300 µL samples were withdrawn and filtered using 0.22 µm filter plates. Optical density at λ_max was measured using a UV spectrophotometer.

in vivo [5] = conditions: female, CD-1, mouse, iv
Procedure: Thus, the safety and tolerability of TXA11114 was determined to find an optimum dosing capability. The maximum tolerated dose (MTD) of TXA11114 was assessed in female mice (CD-1, 6–8 weeks old) at the University of North Texas Health Science Center (UNTHSC). TXA11114 was administered IV to groups of three female mice. Mice were administered TXA11114 in the range 30–240 mg/kg (IV bolus). […] As doses are tolerated (not resulting in effects such as mortality, convulsions, or other severe morbidity), they are increased. Survival and general observations as to the tolerability of the administered dose started immediately and continued for a period of 48 h after each dose was recorded.

[6] = levofloxacin 15 mg/kg SC QID, alone or with TXA11114 30 mg/kg IV QID
[7] = levofloxacin 30 mg/kg SC QID, alone or with TXA11114 30 mg/kg IV QID
[8] = Pseudomonas aeruginosa, ATCC27853, EPIR32
[9] = Pseudomonas aeruginosa, ATCC27853, EPIR38

C[C@H]1COc2c(N3CCN(C)CC3)c(F)cc3c(=O)c(C(=O)O)cn1c23 [Levofloxacin, levofloxacin]
Cmax (in vivo [1]; BALF Cmax): 2000 ng/mL
Tmax (in vivo [1]; BALF Tmax): 15 min
AUC(0-t) (in vivo [1]; Plasma AUC 0-t): 32900 ng·h/mL
Cmax (in vivo [1]; Plasma Cmax): 24100 ng/mL
half-life (in vivo [1]): 88.8 min
Tmax (in vivo [1]; Plasma Tmax): 15 min
Vd (in vivo [1]): 1.89 L/kg
AUC(0-t) (in vivo [1]; sc, BALF AUC 0-t): 3900 ng·h/mL
Mean Log10 CFU (lung) (P. aeruginosa ATCC 27853 [2]; [6]): 5.86 log10 CFU
Mean Log10 CFU (lung) (P. aeruginosa ATCC 27853 [2]; [7]): 3.98 log10 CFU
Mean Log10 CFU Change vs +2 hr Control, Δlog10 (treatment-baseline), lung (P. aeruginosa ATCC 27853 [2]; [6]): 1.27 log10 CFU
Mean Log10 CFU Change vs +24 hr Control, lung (P. aeruginosa ATCC 27853 [2]; [6]): 3.03 log10 CFU
Reduction of lung CFU at 24 h post-infection (P. aeruginosa ATCC 27853 [2]; [7]): 0.61 log10 CFU
Frequency of Resistance (P. aeruginosa ATCC 27853 [3]; ATCC 27853, levofloxacin 4× MIC (4 μg/mL) alone): 3.80 × 10^−8
LVX MIC (P. aeruginosa; OD600 0.001, TXA11114 0 μg/mL): 1 µg/mL
LVX MIC (P. aeruginosa; OD600 0.025, TXA11114 0 μg/mL): 2 µg/mL
MIC [4, 8]: 0.25 µg/mL
MIC [4, 9]: 0.5 µg/mL

NC[C@@H]1CN[C@H](CNC(=O)c2cc3ccc(-c4ccc(F)cc4)cc3[nH]2)C1 [TXA09155]
solubility at 6 h (Aqueous solubility): 155 ± 3 µM (≈ 56.8 µg/mL)
MTD at 48 h (in vivo [5]): 30 mg/kg

NCC(F)C[C@@H](N)CNC(=O)c1cc2ccc(-c3ccc(F)cc3)cc2[nH]1 (stereo partly drawn) [TXA11114, N-((2R)-2,5-diamino-4-fluoropentyl)-6-(4-fluorophenyl)-1H-indole-2-carboxamide]
Aqueous solubility (Aqueous solubility; pH 7.4): 145.9 ± 6.1 µM
solubility at 6 h (Aqueous solubility): > 145 µM
MTD at 48 h (in vivo [5]; in vivo, Maximum tolerated dose (MTD), mice, IV bolus for TXA11114): < 90 mg/kg
MTD at 48 h (in vivo [5]): > 60 mg/kg
AUC(0-t) (in vivo [1]; BALF AUC 0-t): 13200 ng·h/mL
Tmax (in vivo [1]; BALF Tmax): 240 min
AUC(0-t) (in vivo [1]; Plasma AUC 0-t): 30700 ng·h/mL
Cmax (in vivo [1]; Plasma Cmax): 13000 ng/mL
half-life (in vivo [1]): 110 min
Tmax (in vivo [1]; Plasma Tmax): 4.98 min
Vd (in vivo [1]): 2.5 L/kg
Effect of EPI alone on bacterial burden, lung (P. aeruginosa ATCC 27853 [2]; 30 mg/kg, IV, QID): did not reduce bacterial burden
Mean Log10 CFU (lung) (P. aeruginosa ATCC 27853 [2]; TXA11114 30 mg/kg IV QID alone): 8.75 log10 CFU
Mean Log10 CFU Change vs +2 hr Control, Δlog10 (treatment-baseline), lung (P. aeruginosa ATCC 27853 [2]; TXA11114 30 mg/kg IV QID alone): 4.16 log10 CFU
Frequency of Resistance (P. aeruginosa ATCC 27853 [3]): <1.04 × 10^−10
FoR, resistance to TXA11114 alone (P. aeruginosa ATCC 27853 [3]; 1X-MIC (100 µg/mL), ATCC 27853): 1.8 × 10^−6
FoR, resistance to TXA11114 alone (P. aeruginosa ATCC 27853 [3]; 4X-MIC (400 µg/mL), ATCC 27853): <3.09 × 10^−9
LVX MIC (P. aeruginosa; OD600 0.001, TXA11114 25 μg/mL): 0.031 µg/mL
LVX MIC fold difference (P. aeruginosa; OD600 0.001, TXA11114 25 μg/mL): 32 fold
LVX MIC (P. aeruginosa; OD600 0.001, TXA11114 50 μg/mL): 0.008 µg/mL
LVX MIC fold difference (P. aeruginosa; OD600 0.001, TXA11114 50 μg/mL): 128 fold
LVX MIC (P. aeruginosa; OD600 0.025, TXA11114 25 μg/mL): 0.063 µg/mL
LVX MIC fold difference (P. aeruginosa; OD600 0.025, TXA11114 25 μg/mL): 32 fold
LVX MIC (P. aeruginosa; OD600 0.025, TXA11114 50 μg/mL): 0.031 µg/mL
LVX MIC fold difference (P. aeruginosa; OD600 0.025, TXA11114 50 μg/mL): 64 fold
Minimal potentiation concentration (MPC) (P. aeruginosa; standard broth microdilution inoculum): 6.25 µg/mL
Fold MIC reduction [LVX/EPI‐LVX] ([4]; EPI36): 1 fold
LVX MIC (+ EPI […]) ([4]; EPI36): 0.125
Fold MIC reduction [LVX/EPI‐LVX] ([4]; EPIR32): 1 fold
LVX MIC (+ EPI […]) ([4]; EPIR32): 0.25
MIC ([4]; EPIR36, listed as TXA): 200 µg/mL
MIC [4, 8]: > 200 µg/mL
MIC ([4]; Pseudomonas aeruginosa, ATCC27853, EPIR36): > 200 µg/mL
MIC [4, 9]: 200 µg/mL
